Measurements reported in PMC6384991, “5-Arylideneimidazolones with Amine at Position 3 as Potential Antibiotic Adjuvants against Multidrug Resistant Bacteria” (Molecules, 2019).
Where “and” joins values, the source holds several entries; their conditions need not be identical. Identical values can stand only once. Like-named read-outs stand apart in the source and are kept apart here.

Legend:
[1] = test system: S. aureus ATCC 25923; assay: Intrinsic antibacterial activity (MIC, microdilution) against reference S. aureus strain; type: cell-based; conditions: S. aureus ATCC 25923, compound alone, MH II broth
Method: (§1) Initially, 12 arylideneimidazolone derivatives were evaluated in vitro for their intrinsic antibacterial effect against two strains of S. aureus: the reference strain S. aureus ATCC 25923 and extremely-drug resistant (XDR) MRSA HEMSA 5 clinical isolate. This step of the study was necessary for: (i) elucidation whether molecules tested are devoid of antistaphylococcal activity and thus cannot become antimicrobial agents by themselves; and (ii) determination of the concentrations of compounds suitable for the further assay on their antibiotic adjuvant potency. In addition, the antistaphylococcal efficacy of oxacillin, which was paired with compounds tested, in the following assays was also assessed (Table 3).

[2] = test system: S. aureus ATCC 25923; assay: MIC reduction assay: influence on oxacillin susceptibility in reference strain; type: cell-based
[3] = test system: MRSA HEMSA 5; assay: Intrinsic antibacterial activity (MIC, microdilution) against MRSA HEMSA 5; type: cell-based, S. aureus
Method: as §1

[4] = test system: E. aerogenes Ea-294, Ea-298; assay: MIC (microdilution) against E. aerogenes strains devoid of AcrAB / TolC
[5] = test system: E. aerogenes CM-64; assay: MIC (microdilution) against E. aerogenes CM-64 overexpressing AcrAB-TolC
[6] = test system: MRSA HEMSA 5; assay: MIC reduction assay: influence on oxacillin susceptibility in MRSA; type: cell-based, S. aureus
Method: The lack of a direct antibacterial activity of arylideneimidazolone derivatives tested allowed analyzing their anti-resistance potency in combination with the β-lactam antibiotic, oxacillin. […] The potential of compounds to become antibiotic adjuvants was evaluated by comparing the drug effectiveness in the presence and absence of compounds tested, thereby, by determining activity gain parameter A (Table 5). […] Slightly lower adjuvant-like activity was determined for the imidazolone derivatives 7 and 10 (A = 8–16). The efficacy of the remaining compounds was slightly less marked, however, also significant. Although compounds tested improved noticeably the antibacterial activity of oxacillin against MRSA clinical isolate, none of them restored the activity of the antibiotic (MIC < 2 µg/mL) against this highly resistant strain.

[7] = test system: E. aerogenes Ea-289; assay: MIC (microdilution) against E. aerogenes Ea-289 overexpressing AcrAB-TolC, porin-deficient
[8] = test system: MDR strains of Gram-negative bacteria; set-up: method as in PMID 26824939; conditions: cited from earlier work
[9] = test system: Salmonella typhimurium TA100; type: cell-based; conditions: for Mean of Revertants: 72 h; for Fold Increase Over Baseline: mutagenic if ≥ 2; for Binomial B-Value: ≤ 0.01 may be cytotoxic effect
Method: The mutagenicity was evaluated using Ames microplate fluctuation protocol (MPF) performed with Salmonella typhimurium TA100 strain, which is able to detect base pair substitutions. Calculation of medium control baseline (MCB) was performed basing on mean number of revertants in standard medium control in addition with one standard deviation. According to the manufacturer’s protocol, the mutagen alert is determined as 2-fold of medium control baseline (2 x MCB), which in this study was calculated as 24 revertants.
Ames microplate fluctuation protocol (MPF) assay was obtained from Xenometrix AG (Allschwil, Switzerland). The occurrence of mutagen-induced or spontaneous reversion events to histidine prototrophy was determined as a growth of S. typhimurium TA100 in the indicator medium without histidine after 72 h incubation at 37 °C temperature. NQNO (0.5 µM) was used as a positive control. Compound 9 was tested in triplicate at the final concentrations 1 and 10 µM. The revertants’ growth induced the colour change of medium which was analysed next colourimetrically with a microplate reader (EnSpire, PerkinElmer, Waltham, MA, USA) at 420 nm.

[10] = PAMPA membrane permeability (Pre-coated PAMPA Plate System Gentest); type: in vitro ADME; conditions: 200 µM in PBS pH 7.4, room temperature, read-out: Pe ± SD
[11] = test system: HepG2 cells; assay: Hepatotoxicity, MTS viability assay; type: cell-based; conditions: 72 h; for HepG2 cells' viability: MTS
Method: Determination of potential hepatotoxicity was performed with hepatoma HepG2 cells by standard colorimetric MTS procedure. Compound 9 was diluted into the cell culture media in the following concentrations: 0.1, 1, 10 and 100 μM, added to the cells and incubated for 72 h at 37 °C in the presence of 5% CO2. The cytostatic drug doxorubicin (DX) was used at 1 µM, as the reference. […] However, in comparison to the result obtained for the reference DX the hepatotoxicity potential of tested compound is moderate, as its decreased cells’ viability to ~74% of control at 10 µM, whereas DX to ~15% of control at 1 µM (Figure 10).
The HepG2 cells were seeded in 96-well plates at a concentration of 1 × 10^4 cells/well and incubated for 24 h at 37 °C in 5% CO2 atmosphere to reach 50% of confluence. Compound 9 was diluted into fresh growth medium and added to the cells at the final concentrations 0.1 μM–100 μM. The positive controls DX and CCCP were added at 1 μM and 10 μM, respectively, and the cells were incubated for 72 h. The MTS reagent (CellTiter 96® AQueous One Solution Cell Proliferation Assay, Promega, Madison, WI, USA) was added next to the each well and incubated for 4 h. The absorbance was measured next using a microplate reader (EnSpire, PerkinElmer, Waltham, MA USA) at 490 nm to determine cells’ viability.

[12] = test system: AcrAB-TolC efflux pump in E. aerogenes Ea-289; assay: Real-time efflux (RTE) assay with 1,2'-dNA; conditions: compound 100 µM; Ea-289 strain

Compound: (Z)-5-((9H-Fluoren-2-yl)methylene)-2-amino-3-(2-(4-methylpiperazin-1-yl)ethyl)-3H-imidazol-4(5H)-one hydrochloride [Compound 13]
- MIC Value [1]: 0.0625 to 0.125 mM
- Activity Gain [A] [2]: 1
- Range of Reduction (oxacillin MIC) [2]: no effect
- MIC Value ([3]; MRSA HEMSA 5, compound alone, MH II broth): 0.125 mM
- MIC ([3]; text summary for both strains: ATCC 25923 and MRSA HEMSA 5): 0.0625–0.125 mM and 28.25–56.5 µg/mL
- MIC ([4]; Ea-294, Ea-298): 0.25 mM
- MIC ([5]; CM-64): 0.5 mM
- Activity Gain [A] [6]: 4–8
- Range of Reduction (oxacillin MIC) [6]: from 512 to 64-128
- MIC ([7]; Ea-289): 0.5 mM

Compound: O=C1NC(N2CCNCC2)=N/C1=C\c1ccc(-c2ccccc2)cc1 [Compound 5]
- reduction of rifampin MIC ([8]; MDR Gram-negative bacteria): 32 fold
- reduction of antibiotics MIC values ([8]; oxacillin, chloramphenicol, linezolid and clarytromycin): 8 fold

Compound: CN1CCN(CCCN2C(=O)/C(=C/c3ccc4ccccc4c3)N=C2N)CC1.Cl [Compound 9, (Z)-2-Amino-3-(3-(4-methylpiperazin-1-yl)propyl)-5-(naphthalen-2-ylmethylene)-3H-imidazol-4(5H)-one hydrochloride]
- MIC ([1]; Staphylococcus aureus, ATCC25923, read-out: MIC Value): 500 µM
- MIC ([3]; Staphylococcus aureus, MRSA HEMSA 5, compound alone, MH II broth, read-out: MIC Value): 500 µM
- Mean of Revertants ([9]; 1 µM): 9.33
- Fold Increase Over Baseline ([9]; 1 µM): 0.78
- Binomial B-Value ([9]; 1 µM): 0.6331
- Mean of Revertants ([9]; 10 µM): 5.33
- Fold Increase Over Baseline ([9]; 10 µM): 0.44
- Binomial B-Value ([9]; 10 µM): 0.0093
- maximum revertants occurred ([9]; 1 and 10 µM, mutagen alert 24 revertants): ≤ 11 revertants
- MIC ([4]; Klebsiella aerogenes): 1 mM
- MIC ([5]; Klebsiella aerogenes, CM64): > 2 mM
- melting point: 215 to 217 °C
- Papp at 5 h, 200 µM [10]: 0.72 ± 0.27 ×10⁻⁶ cm/s
- HepG2 cells' viability ([11]; 10 µM): ~ 74 % of control
- effect on HepG2 cells viability ([11]; 10 and 100 µM, p < 0.001 vs control): statistically significant decrease
- Inhibitory efficiency (IE) of 1,2'-dNA efflux [12]: 80%
- MIC ([7]; Klebsiella aerogenes, EA289): > 2 mM

Compound: COc1cccc2c1C(=O)c1c(O)c3c(c(O)c1C2=O)C[C@@](O)(C(=O)CO)C[C@@H]3O[C@H]1C[C@H](N)[C@H](O)[C@H](C)O1 [DX, doxorubicin, reference compound]
- HepG2 cells' viability ([11]; 1 µM): ~ 15 % of control
